Measurements taken from patent publication US8431593B2, “Heteroaryl amide derivatives” (H. Lundbeck A/S, priority 2006, dated 2013).

molecular target: T1, P2X7 receptor (Homo sapiens, UniProt Q99572); experiment: P2X7 calcium mobilization assay, high throughput, antagonist activity (Example 4A); type: cell-based; conditions: 50% decrease in the fluorescence response of cells exposed to 80 μM of 2′(3′)-O-(4-benzoyl-benzoyl)adenosine 5′-triphosphate; Example 4A; read-out: IC50
T1 construct: host or cells: SH-SY5Y
T1 sequence (Q99572 1-595): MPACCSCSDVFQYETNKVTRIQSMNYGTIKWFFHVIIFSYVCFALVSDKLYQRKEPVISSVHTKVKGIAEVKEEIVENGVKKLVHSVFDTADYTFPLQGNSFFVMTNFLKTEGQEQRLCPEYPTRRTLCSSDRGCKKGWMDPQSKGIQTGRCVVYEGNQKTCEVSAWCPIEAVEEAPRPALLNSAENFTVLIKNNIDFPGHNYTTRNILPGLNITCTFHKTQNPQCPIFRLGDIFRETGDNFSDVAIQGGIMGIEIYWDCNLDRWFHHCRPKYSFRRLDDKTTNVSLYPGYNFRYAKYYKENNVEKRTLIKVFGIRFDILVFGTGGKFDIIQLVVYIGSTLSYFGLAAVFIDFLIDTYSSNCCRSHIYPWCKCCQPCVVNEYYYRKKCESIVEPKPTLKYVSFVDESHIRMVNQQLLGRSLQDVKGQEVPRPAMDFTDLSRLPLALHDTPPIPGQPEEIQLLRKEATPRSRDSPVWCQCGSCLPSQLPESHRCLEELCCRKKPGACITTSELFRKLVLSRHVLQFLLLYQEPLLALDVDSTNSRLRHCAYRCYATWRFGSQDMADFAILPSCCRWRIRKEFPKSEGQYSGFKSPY
Outline: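 Antagonism was measured as calcium fluorescence (FLIPR Tetra) in cells seeded one day earlier at 100,000/well, loaded with dye for 1 h and exposed to compound for 1 h at room temperature before agonist. Peak RFU, minus the no-agonist background, was referenced to the mean of the agonist wells.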

| IC50 [nM] | SMILES |
| --- | --- |
| < 2000 | CC(C)(C)OC(=O)C(C#N)Cc1cn2c(C(=O)NCC34CC5CC(CC(C5)C3)C4)cccc2n1 (stereo not drawn) [Compound 806, tert-butyl 3-{5-[(adamantan-1-ylmethyl)carbamoyl]imidazo[1,2-a]pyridin-2-yl}-2-cyanopropanoate] |
| < 2000 | CNC(=O)CC1(c2cn3c(C(=O)NCC45CC6CC(CC(C6)C4)C5)cccc3n2)CC(=O)N(C)C1=O (stereo not drawn) [Compound 807, N-(adamantan-1-ylmethyl)-2-{1-methyl-3-[2-(methylamino)-2-oxoethyl]-2,5-dioxopyrrolidin-3-yl}imidazo[1,2-a] pyridine-5-carboxamide] |
| < 2000 | CCNC(=O)CC1(c2cn3c(C(=O)NCC45CC6CC(CC(C6)C4)C5)cccc3n2)CC(=O)N(CC)C1=O (stereo not drawn) [Compound 808, N-(adamantan-1-ylmethyl)-2-{1-ethyl-3-[2-(ethylamino)-2-oxoethyl]-2,5-dioxopyrrolidin-3-yl}imidazo[1,2-a]pyridine-5-carboxamide] |
| < 2000 | CCOC(=O)C(CC(=O)N(C)C)c1cn2c(C(=O)NCC34CC5CC(CC(C5)C3)C4)cccc2n1 (stereo not drawn) [Compound 809, ethyl 2-{5-[(adamantan-1-ylmethyl)carbamoyl]imidazo[1,2-a]pyridin-2-yl}-4-(dimethylamino)-4-oxobutanoate] |
| < 2000 | CCOC(=O)C(CC(=O)N(CC)CC)c1cn2c(C(=O)NCC34CC5CC(CC(C5)C3)C4)cccc2n1 (stereo not drawn) [Compound 810, ethyl 2-{5-[(adamantan-1-ylmethyl)carbamoyl]imidazo[1,2-a]pyridin-2-yl}-4-(diethylamino)-4-oxobutanoate] |
| < 2000 | CCN(CC)C(=O)CC(C(=O)O)c1cn2c(C(=O)NCC34CC5CC(CC(C5)C3)C4)cccc2n1 (stereo not drawn) [Compound 811, 2-{5-[(adamantan-1-ylmethyl)carbamoyl]imidazo[1,2-a]pyridin-2-yl}-4-(diethylamino)-4-oxobutanoic acid] |
| < 2000 | CN(C)C(=O)CC(C(=O)O)c1cn2c(C(=O)NCC34CC5CC(CC(C5)C3)C4)cccc2n1 (stereo not drawn) [Compound 812, 2-{5-[(adamantan-1-ylmethyl)carbamoyl]imidazo[1,2-a]pyridin-2-yl}-4-(dimethylamino)-4-oxobutanoic acid] |
| < 2000 | O=C(NCC12CC3CC(CC(C3)C1)C2)c1cccc2nc(Cn3nnc(-c4cccnc4)n3)cn12 [Compound 813, N-(adamantan-1-ylmethyl)-2-[(5-pyridin-3-yl-2H-tetrazol-2-yl)methyl] imidazo[1,2-a] pyridine-5-carboxamide] |
| < 2000 | O=C(NCC12CC3CC(CC(C3)C1)C2)c1cccc2nc(Cn3nnnc3-c3cccnc3)cn12 [Compound 814, N-(adamantan-1-ylmethyl)-2-[(5-pyridin-3-yl-1H-tetrazol-1-yl)methyl]imidazo [1,2-a]pyridine-5-carboxamide] |
| < 2000 | O=C(Nc1nnn[nH]1)c1cn2c(C(=O)NCC34CC5CC(CC(C5)C3)C4)cccc2n1 [Compound 815, 5-N-(adamantan-1-ylmethyl)-2-N-1H-tetrazol-5-ylmidazo[1,2-a] pyridine-2,5-dicarboxamide] |
| < 2000 | O=C(NCC12CC3CC(CC(C3)C1)C2)c1cccc2nc(Cn3nnc(-c4ccccn4)n3)cn12 [Compound 816, N-(adamantan-1-ylmethyl)-2-[(5-pyridin-2-yl-2H-tetrazol-2-yl)methyl]imidazo [1,2-a]pyridine-5-carboxamide] |

same assay, conditions: 50% decrease in the fluorescence response of cells exposed to 80 μM of 2′(3′)-O-(4-benzoyl-benzoyl)adenosine 5′-triphosphate; determined as in Example 4A; read-out: IC50

| IC50 [nM] | SMILES |
| --- | --- |
| < 2000 | O=C(NCC12CC3CC(CC(C3)C1)C2)c1cccc2nc(Cn3nnnc3-c3ccncc3)cn12 [Compound 818, N-(adamantan-1-ylmethyl)-2-[(5-pyridin-4-yl-1H-tetrazol-1-yl)methyl]imidazo [1,2-a]pyridine-5-carboxamide] |
| < 2000 | O=C(NCC12CC3CC(CC(C3)C1)C2)c1cccc2nc(CC(=O)N3CCS(=O)(=O)CC3)cn12 [Compound 820, N-(adamantan-l-ylmethyl)-2-[2-(1,1-dioxidothio-morpholin-4-yl)-2-oxoethyl] imidazo[1,2-a] pyridine-5-carboxamide] |
| < 2000 | N[C@@H]1CCN(Cc2cn3c(C(=O)NCC4(c5ccc(Cl)cc5)CCCCC4)cccc3n2)C1 [Compound 821, 2-{[(3R)-3-aminopyrrolidin-1-yl]methyl}-N-{[1-(4-chlorophenyl)cyclohexyl]methyl} imidazo[1,2-a]pyridine-5-carboxamide] |
| < 2000 | N[C@@H]1CCN(Cc2cn3c(C(=O)NCC4(c5ccc(C(F)(F)F)cc5)CCCCC4)cccc3n2)C1 [Compound 822, 2-{[(3R)-3-aminopyrrolidin-1-yl]methyl}-N-({1-[4-(trifluoromethyl)phenyl]cyclohexyl}methyl) imidazo[1,2-a] pyridine-5-carboxamide] |
| < 2000 | CC(C)CC(CNC(=O)c1cccc2nc(CN3CC[C@@H](N)C3)cn12)c1cccnc1 (stereo partly drawn) [Compound 823, 2-{[(3R)-3-aminopyrrolidin-1-yl]methyl}-N-(4-methyl-2-pyridin-3-ylpentyl)imidazo[1,2-a]pyridine-5-carboxamide] |
| < 2000 | Cc1ccc(C2(CNC(=O)c3cccc4nc(CN5CC[C@@H](N)C5)cn34)CCCCC2)cn1 [Compound 824, 2-{[(3R)-3-aminopyrrolidin-1-yl]methyl}-N-{[1-(6-methylpyridin-3-yl)cyclohexyl]methyl} imidazo[1,2-a] pyridine-5-carboxamide] |
| < 2000 | CN(Cc1cccc(N)n1)C(=O)c1cn2c(C(=O)NCC34CC5CC(CC(C5)C3)C4)cccc2n1 [Compound 825, 5-N-(adamantan-1-ylmethyl)-2-N-[(6-aminopyridin-2-yl)methyl]-2-N-methylimidazo[1,2-a]pyridine-2,5-dicarboxamide] |
| < 2000 | O=C(NCC12CC3CC(CC(C3)C1)C2)c1cccc2nc(C(=O)n3ccc(N4CCNC4=O)n3)cn12 [Compound 826, N-(adamantan-1-ylmethyl)-2-{[3-(2-oxoimidazolidin-1-yl)-1H-pyrazol-1-yl]carbonyl}imidazo [1,2-a]pyridine-5-carboxamide] |
| < 2000 | O=C(NCC12CC3CC(CC(C3)C1)C2)c1cccc2nc(Cn3nnnc3N3CCOCC3)cn12 [Compound 828, N-(adamantan-1-ylmethyl)-2-[(5-morpholin-4-yl-1H-tetrazol-1-yl)methyl]imidazo [1,2-a]pyridine-5-carboxamide] |
| < 2000 | CC(C)CC(CNC(=O)c1cccc2nc(C(=O)N3CCC[C@@H](N)C3)cn12)c1ccc(Cl)cc1 (stereo partly drawn) [Compound 832, 2-{[(3R)-3-aminopiperidin-1-yl]carbonyl}-N-[2-(4-chlorophenyl)-4-methylpentyl] imidazo[1,2-a] pyridine-5-carboxamide] |
| < 2000 | CCOC(=O)C1(c2cn3c(C(=O)NCC45CC6CC(CC(C6)C4)C5)cccc3n2)CCCC1 [Compound 833, ethyl 1-{5-[(adamantan-1-ylmethyl)carbamoyl]imidazo[1,2-a]pyridin-2-yl} cyclopentane-carboxylate] |
| < 2000 | CC(C)CC(CNC(=O)c1cccc2nc(Cn3ccc(N)n3)cn12)c1ccc(Cl)cc1 (stereo not drawn) [Compound 834, 2-[(3-amino-1H-pyrazol-1-yl)methyl]-N-[2-(4-chlorophenyl)-4-methylpentyl] imidazo [1,2-a]pyridine-5-carboxamide] |
| < 2000 | CC(C)CC(CNC(=O)c1cccc2nc(CNc3cc[nH]n3)cn12)c1ccc(Cl)cc1 (stereo not drawn) [Compound 835, N-[2-(4-chlorophenyl)-4-methylpentyl]-2-[(1H-pyrazol-3-ylamino)methyl] imidazo [1,2-a]pyridine-5-carboxamide] |
